Key:
[1] = tested on: MDA-MB-231; assay: Cell growth inhibition, 4-day proliferation assay, MDA-MB-231; type: cell-based; conditions: Homo sapiens, MDA-MB-231; WST-8 assay, Table 7; read-out: Cell growth inhibition (IC50 (nM)) MDA-MB-231
Method: (§1) The effect of representative Compounds of the Disclosure on cell viability was determined in a 4-day proliferation assay. Cells were maintained in the appropriate culture medium with 100/0 FBS at 37° C. and an atmosphere of 5% CO2. All the cell lines were used within three months of thawing fresh vials.
(§2) In general, cells were seeded in 96-well flat bottom (Corning COSTAR, Corning, N.Y., cat #3595) or white opaque cell culture plates (BD Falcon, cat #353296) at a density of 3,000-10,000 cells/well in 75 μl of culture medium. Compounds were serially diluted in the appropriate medium, and 75 μl of the diluted compounds were added to the appropriate wells of the cell plate. After the addition of compounds, the cells were incubated at 37° C. in an atmosphere of 5% CO2 for 4 days. Cell viability was determined using the CellTiter-Glo® Luminescent Cell Viability Assay Kit (Promega, Madison, Wis.) for leukemia cells and WST (2-(2-methoxy-4-nitrophenyl)-3-(4-nitrophenyl)-5-(2,4-disulfophenyl)-2H-tetrazolium, monosodium salt) Cell Counting-8 Kit (Dojindo Molecular Technologies, Inc., Rockville, Md.) for adherent cells according to the manufacturers' instructions.
(§3) For WST assay (adherent cells), WST-8 reagent was added to each well at a final concentration of 10% (v/v), and then the plates were incubated at 37° C. for 1-2 hours for color development. The absorbance was measured at 450 nm using a SPECTRAmax PLUS plate reader (Molecular Devices, Sunnyvale, Calif.). The readings were normalized to the DMSO-treated cells and the half maximal inhibitory concentration (IC50) was calculated by nonlinear regression (four parameters sigmoid fitted with variable slope, least squares fit, and no constraint) analysis using the GraphPad Prism 5 software (GraphPad Software, La Jolla, Calif.).
(§4) For CellTiter-Glo assay (suspension cells), 100 μl of CellTiter-Glo® Reagent was added to each well, and then the plates were incubated at room temperature for 10-20 minutes. The luminescent signal was measured using a Tecan Infinite M1000 multimode microplate reader (Tecan, Morrisville, N.C.). The readings were normalized to the DMSO-treated cells and the IC50 was calculated by nonlinear regression (four parameters sigmoid fitted with variable slope, least squares fit, and no constraint) analysis using the GraphPad Prism 5 software. See US 2014/0256706.
(§5) For a number of representative compounds in Table 5, their IC50 values in cell growth inhibition activity in the RS4;11 and MOLM-13 human leukemia cell lines and the MDA-MB-231 breast cancer cell line were evaluated using the WST-8 assay described in EXAMPLE 7, with the data shown in Table 7.

[2] = tested on: MOLM-13; assay: Cell growth inhibition, 4-day proliferation assay, MOLM-13; type: cell-based; conditions: Homo sapiens, MOLM-13, WST-8 assay, Table 7; read-out: Cell growth inhibition (IC50 (nM)) MOLM-13
Method: as §1, §2, §3, §4, §5

SMILES | IC50 [1] | IC50 [2]
Cc1nnc(C[C@@H]2N=C(c3ccc(Cl)cc3)c3c(sc(C#Cc4ncccc4F)c3C)-n3c(C)nnc32)o1 [Compound 139, (S)-2-((4-(4-chlorophenyl)-2-((3-fluoropyridin-2-yl)ethynyl)-3,9-dimethyl-6H-thieno[3,2-f][1,2,4]triazolo[4,3-a][1,4]diazepin-6-yl)methyl)-5-methyl-1,3,4-oxadiazole] | 28.9 nM | 4 to 10 nM
Cc1c(C#Cc2ccccn2)sc2c1C(c1ccc(Cl)cc1)=N[C@@H](CC(=O)NC1CCOCC1)c1nnc(C)n1-2 [Compound 133, (S)-2-(4-(4-chlorophenyl)-3,9-dimethyl-2-(pyridin-2-ylethynyl)-6H-thieno[3,2-f][1,2,4]triazolo[4,3-a][1,4]diazepin-6-yl)-N-(tetrahydro-2H-pyran-4-yl)acetamide] | 338 nM | 8.4 nM
Cc1c(C#Cc2ccccn2)sc2c1C(c1ccc(Cl)cc1)=N[C@@H](CC(=O)N1CCC(C)(O)CC1)c1nnc(C)n1-2 [Compound 137, (S)-2-(4-(4-chlorophenyl)-3,9-dimethyl-2-(pyridin-2-ylethynyl)-6H-thieno[3,2-f][1,2,4]triazolo[4,3-a][1,4]diazepin-6-yl)-1-(4-hydroxy-4-methylpiperidin-1-yl)ethan-1-one] | > 10000 nM | 43200 nM
Cc1c(C#Cc2cncn2C)sc2c1C(c1ccc(Cl)cc1)=N[C@@H](CC(=O)N1CCN(C(=O)OC(C)(C)C)CC1)c1nnc(C)n1-2 [Compound 163, tert-butyl (S)-4-(2-(4-(4-chlorophenyl)-3,9-dimethyl-2-((1-methyl-1H-imidazol-5-yl)ethynyl)-6H-thieno[3,2-f][1,2,4]triazolo[4,3-a][1,4]diazepin-6-yl)acetyl)piperazine-1-carboxylate] | 362 nM | 33.1 nM
Cc1c(C#Cc2cnn(C)c2)sc2c1C(c1ccc(Cl)cc1)=N[C@@H](CC(=O)N1CCNCC1)c1nnc(C)n1-2 [Compound 161, (S)-2-(4-(4-chlorophenyl)-3,9-dimethyl-2-((1-methyl-1H-pyrazol-4-yl)ethynyl)-6H-thieno[3,2-f][1,2,4]triazolo[4,3-a][1,4]diazepin-6-yl)-1-(piperazin-1-yl)ethan-1-one] | 76.2 nM | 10.9 nM
Cc1c(C#Cc2cccnc2)sc2c1C(c1ccc(Cl)cc1)=N[C@@H](CC(C)C)c1nnc(C)n1-2 [Compound 106, (S)-4-(4-chlorophenyl)-6-isobutyl-3,9-dimethyl-2-(pyridin-3-ylethynyl)-6H-thieno[3,2-f][1,2,4]triazolo[4,3-a][1,4]diazepine] | 670 ± 100 nM | 393 nM

From patent US11046709B2, “Fused 1,4-diazepines as BET bromodomain inhibitors” (THE REGENTS OF THE UNIVERSITY OF MICHIGAN, priority 2017, dated 2021)
